Where “and” joins values, the source holds several entries; their conditions need not be identical. Equal entries are not always repeated. Toxic doses and inconclusive results are not listed. Rule as the data show it: active = T/C of 150% or more; inactive = T/C below 125%.
System: L1210 leukemia ip in BDF1 mice, survival T/C
Experiment: NCI In Vivo Anticancer Drug Screen. Data for tumor model L1210 Leukemia (intraperitoneal) in B6D2F1 (BDF1) mice
Conditions: endpoint: mean survival time, higher = longer survival
Summary of the method: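 Tumor cells were implanted, animals were treated, and survival was followed. The result divides the treated measurement by the vehicle-control measurement.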

[1] = dose: 100.0 mg/kg/injection, schedule: Q04DX003 (ip), vehicle: saline with Tween-80
[2] = dose: 200.0 mg/kg/injection, schedule: Q04DX003 (ip), vehicle: saline with Tween-80
[3] = dose: 400.0 mg/kg/injection, schedule: Q04DX003 (ip), vehicle: saline with Tween-80
[4] = dose: 100.0 mg/kg/injection, schedule: Q04DX003 (ip), vehicle: Klucel (hydroxypropylcellulose) (HPC)
[5] = dose: 200.0 mg/kg/injection, schedule: Q04DX003 (ip), vehicle: Klucel (hydroxypropylcellulose) (HPC)
[6] = dose: 400.0 mg/kg/injection, schedule: Q04DX003 (ip), vehicle: Klucel (hydroxypropylcellulose) (HPC)
[7] = dose: 100.0 mg/kg/injection, schedule: Q04DX002 (ip), vehicle: Klucel (hydroxypropylcellulose) (HPC)
[8] = dose: 200.0 mg/kg/injection, schedule: Q04DX002 (ip), vehicle: Klucel (hydroxypropylcellulose) (HPC)
[9] = dose: 400.0 mg/kg/injection, schedule: Q04DX002 (ip), vehicle: Klucel (hydroxypropylcellulose) (HPC)
[10] = dose: 100.0 mg/kg/injection, schedule: Q04DX003 (ip), vehicle: saline
[11] = dose: 100.0 mg/kg/injection, schedule: Q01DX001 (ip), vehicle: other
[12] = dose: 200.0 mg/kg/injection, schedule: Q01DX001 (ip), vehicle: other
[13] = dose: 25.0 mg/kg/injection, schedule: Q04DX002 (ip), vehicle: saline
[14] = dose: 50.0 mg/kg/injection, schedule: Q04DX002 (ip), vehicle: saline
[15] = dose: 100.0 mg/kg/injection, schedule: Q04DX002 (ip), vehicle: saline
[16] = dose: 200.0 mg/kg/injection, schedule: Q04DX003 (ip), vehicle: saline
[17] = dose: 400.0 mg/kg/injection, schedule: Q04DX003 (ip), vehicle: saline

Measured: T/C

Oc1ccc(Nc2ncnc3nc[nH]c23)cc1O
inactive: [1] 101 % of control | [2] 89 % of control | [3] 100 % of control

O=C1N(c2ccccc2)C(=O)N1c1ccccc1
inactive: [4] 93 % of control | [5] 96 % of control

C=C1C2CCC3C4(C)CC(OC5OC(CO)C(OS(=O)(=O)O)C(OS(=O)(=O)O)C5OC(=O)CCCC)CC(C(=O)O)(C(=O)O)C4CCC3(C2)C1O (stereo not given)
inactive: dose: 3.12 mg/kg/injection, schedule: Q04DX002 (ip), vehicle: saline 103 % of control | dose: 6.25 mg/kg/injection, schedule: Q04DX002 (ip), vehicle: saline 95 % of control

CS(=O)(=O)OCC(O)C(O)CI (stereo not given)
inactive: dose: 75.0 mg/kg/injection, schedule: Q01DX001 (ip), vehicle: water 104 % of control | dose: 150.0 mg/kg/injection, schedule: Q01DX001 (ip), vehicle: water 111 % of control | dose: 300.0 mg/kg/injection, schedule: Q01DX001 (ip), vehicle: water 116 % of control

N=c1c(C(=O)O)cccn1O
inactive: dose: 87.5 mg/kg/injection, schedule: Q01DX009 (ip), vehicle: Klucel (hydroxypropylcellulose) (HPC) 105 % of control | dose: 175.0 mg/kg/injection, schedule: Q01DX009 (ip), vehicle: Klucel (hydroxypropylcellulose) (HPC) 94 % of control | dose: 350.0 mg/kg/injection, schedule: Q01DX009 (ip), vehicle: Klucel (hydroxypropylcellulose) (HPC) 95 % of control

COc1cc([N+](=O)[O-])ccc1NC(=O)Cc1ccccc1
inactive: dose: 100.0 mg/kg/injection, schedule: Q01DX009 (ip), vehicle: saline with Tween-80 111 % of control | dose: 200.0 mg/kg/injection, schedule: Q01DX009 (ip), vehicle: saline with Tween-80 91 % of control | dose: 400.0 mg/kg/injection, schedule: Q01DX009 (ip), vehicle: saline with Tween-80 96 % of control

O=P(c1ccccc1)(c1ccccc1)N1CC1c1ccccc1 (stereo not given)
inactive: dose: 75.0 mg/kg/injection, schedule: Q01DX001 (ip), vehicle: carboxymethylcellulose (CMC) 96 % of control | dose: 150.0 mg/kg/injection, schedule: Q01DX001 (ip), vehicle: carboxymethylcellulose (CMC) 95 % of control | dose: 300.0 mg/kg/injection, schedule: Q01DX001 (ip), vehicle: carboxymethylcellulose (CMC) 90 % of control

CCOC(=O)C(CCC(C)=O)C1=NC(C)(C)CC(C)O1 (stereo not given)
inactive: dose: 100.0 mg/kg/injection, schedule: Q01DX009 (ip), vehicle: saline sonified 102 % of control | dose: 200.0 mg/kg/injection, schedule: Q01DX009 (ip), vehicle: saline sonified 109 % of control | dose: 400.0 mg/kg/injection, schedule: Q01DX009 (ip), vehicle: saline sonified 98 % of control

Oc1ccc(C(c2ccc(O)c(Br)c2)c2ccccn2)cc1Br
inactive: [4] 100 % of control | [5] 98 % of control | [6] 96 % of control

COC(=O)C1(C)CCCC2(C)C1CCC13CCC(C)(CCC21)C3O (stereo not given)
inactive: [7] 103 % of control | [8] 92 % of control | [9] 92 % of control

CC(C)(C)C(=O)C#Cc1ccccc1
inactive: dose: 25.0 mg/kg/injection, schedule: Q04DX003 (ip), vehicle: saline 102 % of control | dose: 50.0 mg/kg/injection, schedule: Q04DX003 (ip), vehicle: saline 96 % of control | [10] 89 % of control

O=C(O)CC[S-].[Ag+]
inactive: dose: 50.0 mg/kg/injection, schedule: Q04DX003 (ip), vehicle: other 94 % of control | dose: 75.0 mg/kg/injection, schedule: Q01DX009 (ip), vehicle: other 98 % of control | [11] 91 % of control | dose: 100.0 mg/kg/injection, schedule: Q04DX003 (ip), vehicle: other 89 % of control | dose: 150.0 mg/kg/injection, schedule: Q01DX009 (ip), vehicle: other 98 % of control | [12] 91 % of control | dose: 200.0 mg/kg/injection, schedule: Q04DX003 (ip), vehicle: other 91 % of control | dose: 300.0 mg/kg/injection, schedule: Q01DX009 (ip), vehicle: other 109 % of control

COc1ccc(C(O)(c2ccc(OC)cc2)c2ccccn2)cc1
inactive: [1] 95 % of control | [2] 102 % of control | [3] 91 % of control

CS(=O)(=O)OCC(O)C(O)COS(C)(=O)=O (stereo not given)
inactive: dose: 50.0 mg/kg/injection, schedule: Q01DX010 (ip), vehicle: saline 93 % of control and 91 % of control | dose: 100.0 mg/kg/injection, schedule: Q01DX010 (ip), vehicle: saline 96 % of control | dose: 125.0 mg/kg/injection, schedule: Q01DX Z (ip), vehicle: carboxymethylcellulose (CMC) 103 % of control | dose: 200.0 mg/kg/injection, schedule: Q01DX010 (ip), vehicle: saline 102 % of control and 108 % of control | dose: 250.0 mg/kg/injection, schedule: Q01DX Z (ip), vehicle: carboxymethylcellulose (CMC) 112 % of control | dose: 400.0 mg/kg/injection, schedule: Q01DX010 (ip), vehicle: saline 117 % of control | dose: 440.0 mg/kg/injection, schedule: Q01DX001 (ip), vehicle: carboxymethylcellulose (CMC) 101 % of control and 107 % of control | dose: 500.0 mg/kg/injection, schedule: Q01DX Z (ip), vehicle: carboxymethylcellulose (CMC) 123 % of control | dose: 670.0 mg/kg/injection, schedule: Q01DX001 (ip), vehicle: carboxymethylcellulose (CMC) 101 % of control and 107 % of control | dose: 1000.0 mg/kg/injection, schedule: Q01DX001 (ip), vehicle: carboxymethylcellulose (CMC) 103 % of control and 110 % of control

CCCC(C)(O)C(=O)O (stereo not given)
inactive: [13] 100 % of control | [14] 103 % of control | [15] 95 % of control

CSc1[nH]c2ncnc(N)c2c1C#N
inactive: [11] 88 % of control | [12] 101 % of control

CCCN(CCC)CCC#N
inactive: dose: 59.0 mg/kg/injection, schedule: Q01DX009 (ip), vehicle: saline with Tween-80 100 % of control | [1] 93 % of control | dose: 118.0 mg/kg/injection, schedule: Q01DX009 (ip), vehicle: saline with Tween-80 105 % of control | [2] 93 % of control

O=C1c2cccc3c([N+](=O)[O-])ccc(c23)C(=O)N1Cc1ccco1
inactive: [7] 108 % of control | [8] 97 % of control | [9] 102 % of control

CC(=O)n1cc(CS)c(=O)[nH]c1=O
inactive: dose: 100.0 mg/kg/injection, schedule: Q01DX001 (ip), vehicle: saline 106 % of control

Cc1cccc(NC(=O)Nc2ccccc2)c1C
inactive: dose: 100.0 mg/kg/injection, schedule: Q01DX009 (ip), vehicle: Klucel (hydroxypropylcellulose) (HPC) 104 % of control | [4] 101 % of control | dose: 200.0 mg/kg/injection, schedule: Q01DX009 (ip), vehicle: Klucel (hydroxypropylcellulose) (HPC) 96 % of control | [5] 95 % of control | dose: 400.0 mg/kg/injection, schedule: Q01DX009 (ip), vehicle: Klucel (hydroxypropylcellulose) (HPC) 104 % of control | [6] 98 % of control

Cc1cc2ncn(CC(=O)O)c2cc1C
inactive: [10] 101 % of control | [16] 95 % of control | [17] 97 % of control

CCNCCNCC(Cc1ccccc1)c1ccccc1 (stereo not given)
inactive: [13] 86 % of control | [14] 105 % of control | [15] 93 % of control and 92 % of control

Clc1nc(Cl)nc(SCCSc2nc(Cl)nc(Cl)n2)n1
inactive: [10] 97 % of control | [16] 110 % of control | [17] 98 % of control
